# Experimental data reported in the NIST ThermoML archive (doi:10.1021/je900542y).
# Values joined by “and” are separate entries in the source; they are usually repeats but may differ in a detail not shown here. Identical values can stand only once. Numbers after ± are expanded uncertainties.
# How the values were obtained:
# [1] = mn = molality of the nth substance listed, in mol/kg; conditions: 298.15 K, 101 kPa, Liquid
# [2] = 298.15 K; 101 kPa; Liquid
smiles,measurement,setting,value
CC#N [acetonitrile] + CC[N+](CC)(CC)CC.[I-],mass density,[1]; m2 = 0,776.01 ± 0.6 kg/m3
CO [methanol],mass density,[2],786.38 ± 0.49 kg/m3
CC#N [acetonitrile],mass density,[2],776.01 ± 0.6 kg/m3 and 776.02 ± 0.59 kg/m3
CC[N+](CC)(CC)CC.[I-] [tetraethylammonium iodide] + CC(C)=O,mass density,[1]; m1 = 0.0001,783.81 ± 0.5 kg/m3
same,mass density,[1]; m1 = 0.0002,783.81 ± 0.5 kg/m3
same,mass density,[1]; m1 = 0.00536,784.1 ± 0.5 kg/m3
same,mass density,[1]; m1 = 0.005361,784.11 ± 0.5 kg/m3
same,mass density,[1]; m1 = 0.007105,784.2 ± 0.49 kg/m3
same,mass density,[1]; m1 = 0.007106,784.21 ± 0.49 kg/m3
same,mass density,[1]; m1 = 0.007107,784.2 ± 0.49 kg/m3
same,mass density,[1]; m1 = 0.008909,784.3 ± 0.5 kg/m3
same,mass density,[1]; m1 = 0.00891,784.3 ± 0.5 kg/m3
same,mass density,[1]; m1 = 0.01242,784.5 ± 0.49 kg/m3
same,mass density,[1]; m1 = 0.0142,784.6 ± 0.49 kg/m3
same,mass density,[1]; m1 = 0.0177,784.81 ± 0.49 kg/m3
same,mass density,[1]; m1 = 0.01771,784.81 ± 0.49 kg/m3
same,mass density,[1]; m1 = 0.02114,784.99 ± 0.49 kg/m3
same,mass density,[1]; m1 = 0.02115,785 ± 0.49 kg/m3
O=[N+]([O-])c1ccccc1 [nitrobenzene],mass density,[2],1198.91 ± 0.72 kg/m3
CC[N+](CC)(CC)CC.[I-] [tetraethylammonium iodide] + CC#N,mass density,[1]; m1 = 0.0001,776.01 ± 0.6 kg/m3
same,mass density,[1]; m1 = 0.0002,776.02 ± 0.59 kg/m3
same,mass density,[1]; m1 = 0.00354,776.16 ± 0.59 kg/m3
same,mass density,[1]; m1 = 0.003541,776.16 ± 0.59 kg/m3
same,mass density,[1]; m1 = 0.007081,776.32 ± 0.59 kg/m3
same,mass density,[1]; m1 = 0.007082,776.32 ± 0.59 kg/m3
same,mass density,[1]; m1 = 0.01062,776.47 ± 0.59 kg/m3
same,mass density,[1]; m1 = 0.01064,776.46 ± 0.59 kg/m3
same,mass density,[1]; m1 = 0.01416,776.63 ± 0.59 kg/m3
same,mass density,[1]; m1 = 0.01417,776.61 ± 0.59 kg/m3
same,mass density,[1]; m1 = 0.0176,776.77 ± 0.59 kg/m3 and 776.78 ± 0.59 kg/m3
same,mass density,[1]; m1 = 0.02124,776.93 ± 0.59 kg/m3
same,mass density,[1]; m1 = 0.02832,777.24 ± 0.59 kg/m3
CC(C)=O [acetone] + CC[N+](CC)(CC)CC.[I-],mass density,[1]; m2 = 0,783.81 ± 0.5 kg/m3
CC[N+](CC)(CC)CC.[I-] [tetraethylammonium iodide] + CO,mass density,[1]; m1 = 0.0001,786.38 ± 0.49 kg/m3
same,mass density,[1]; m1 = 0.0002,786.38 ± 0.49 kg/m3
same,mass density,[1]; m1 = 0.00354,786.54 ± 0.49 kg/m3
same,mass density,[1]; m1 = 0.003541,786.54 ± 0.49 kg/m3
same,mass density,[1]; m1 = 0.003542,786.54 ± 0.49 kg/m3
same,mass density,[1]; m1 = 0.007079,786.69 ± 0.49 kg/m3
same,mass density,[1]; m1 = 0.00708,786.69 ± 0.49 kg/m3
same,mass density,[1]; m1 = 0.007081,786.69 ± 0.49 kg/m3
same,mass density,[1]; m1 = 0.01062,786.85 ± 0.49 kg/m3
same,mass density,[1]; m1 = 0.01063,786.85 ± 0.49 kg/m3
same,mass density,[1]; m1 = 0.01416,787 ± 0.49 kg/m3
same,mass density,[1]; m1 = 0.01417,787 ± 0.49 kg/m3
same,mass density,[1]; m1 = 0.0176,787.17 ± 0.49 kg/m3 and 787.18 ± 0.49 kg/m3
same,mass density,[1]; m1 = 0.02124,787.31 ± 0.49 kg/m3
same,mass density,[1]; m1 = 0.02832,787.63 ± 0.49 kg/m3 and 787.62 ± 0.49 kg/m3
CC(C)=O [acetone],mass density,[2],783.81 ± 0.5 kg/m3
CO [methanol] + CC[N+](CC)(CC)CC.[I-],mass density,[1]; m2 = 0,786.38 ± 0.49 kg/m3
O=[N+]([O-])c1ccccc1 [nitrobenzene] + CC[N+](CC)(CC)CC.[I-],mass density,[1]; m2 = 0,1198.91 ± 0.72 kg/m3
CC[N+](CC)(CC)CC.[I-] [tetraethylammonium iodide] + O=[N+]([O-])c1ccccc1,mass density,[1]; m1 = 0.0001,1198.91 ± 0.72 kg/m3
same,mass density,[1]; m1 = 0.0002,1198.91 ± 0.72 kg/m3
same,mass density,[1]; m1 = 0.003538,1198.97 ± 0.72 kg/m3
same,mass density,[1]; m1 = 0.007075,1199.04 ± 0.72 kg/m3
same,mass density,[1]; m1 = 0.0106,1199.1 ± 0.72 kg/m3
same,mass density,[1]; m1 = 0.01415,1199.17 ± 0.72 kg/m3
same,mass density,[1]; m1 = 0.01416,1199.17 ± 0.72 kg/m3
same,mass density,[1]; m1 = 0.0177,1199.23 ± 0.72 kg/m3
same,mass density,[1]; m1 = 0.02119,1199.29 ± 0.72 kg/m3
same,mass density,[1]; m1 = 0.02469,1199.36 ± 0.72 kg/m3 and 1199.35 ± 0.72 kg/m3
